Experimental data from PMC5775280, “Functional Characterization and Signaling Systems of Corazonin and Red Pigment Concentrating Hormone in the Green Shore Crab, Carcinus maenas” (Frontiers in Neuroscience, 2018).
Peptide text beside a SMILES is read from it.

Key:
[1] = biological target: T1, C. maenas RPCHR (red pigment concentrating hormone receptor) (Carcinus maenas, UniProt A0A2L0WQF2); assay: Aequorin luminescence Ca2+ mobilization in CHO-K1-Aeq cells transiently expressing RPCHR; format: cell-based; conditions: for binding to / activation of RPCHR: micromolar concentrations; for EC50: CHO-K1-Aeq cells (without Gα16) transiently expressing RPCHR, luminescence response normalized to total Ca2+ response, dose response curves, means of n = 4
T1 sequence (A0A2L0WQF2 1-529): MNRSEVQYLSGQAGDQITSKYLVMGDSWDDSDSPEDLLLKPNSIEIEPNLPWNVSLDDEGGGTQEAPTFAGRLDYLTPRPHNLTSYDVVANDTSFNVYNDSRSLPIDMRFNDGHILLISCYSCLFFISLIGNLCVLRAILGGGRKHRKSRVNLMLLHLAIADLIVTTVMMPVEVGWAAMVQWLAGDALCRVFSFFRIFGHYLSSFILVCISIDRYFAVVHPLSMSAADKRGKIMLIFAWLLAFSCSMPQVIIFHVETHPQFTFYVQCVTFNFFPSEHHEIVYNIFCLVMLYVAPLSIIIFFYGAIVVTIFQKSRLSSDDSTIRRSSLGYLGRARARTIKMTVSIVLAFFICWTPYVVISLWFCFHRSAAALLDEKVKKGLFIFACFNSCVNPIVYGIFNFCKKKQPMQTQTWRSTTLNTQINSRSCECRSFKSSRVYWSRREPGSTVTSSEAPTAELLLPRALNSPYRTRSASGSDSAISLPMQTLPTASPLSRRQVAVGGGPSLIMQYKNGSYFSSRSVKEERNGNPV
Procedure: (§1) Chinese hamster ovary (CHO-K1) cells containing stably expressed apoaequorin (Perkin Elmer, Boston, MA) and either Gα16 or Gq subunit (control cells) were cultured in Dulbecco's Modified Eagle Medium (DMEM) F-12 Nutrient Mixture GlutaMax (Gibco®) supplemented with 10% fetal bovine serum (Gibco®). Cells were maintained in vented T75 flasks at 37°C in 5% CO2.
(§2) Cells grown in a monolayer to approximately 60% confluency in T75 flasks were transfected with pcDNA3.1 constructs using FugeneHD (Promega) according to the manufacturer's recommendations. Briefly, transfection medium was prepared by combining 800 μl Opti-MEM® (Gibco) with 10 μg vector and 30 μl Fugene HD in a 2 ml polystyrene tube and incubated for 10 min at room temperature. The transfection reagent was added to 5 ml of fresh culture media and the cells incubated overnight at 37°C in 5% CO2. After 24 h, an additional 10 ml of culture media were added to the flasks and the cells returned to 37°C at 5% CO2 for a further overnight incubation.
(§3) On the day of the assay, cells were detached from the culture flask by incubating for 12 min in 5 ml 0.2% EDTA in PBS. The cells were washed with 10 ml DMEM clear DMEM/F-12 containing L-glutamine, 15 mM HEPES and moved to 50 ml centrifuge tubes. Cells were centrifuged for 5 min at 260 g and resuspended to a concentration of 5 × 10^6 cells ml^−1 in 0.2 μm filtered BSA medium (DMEM/F-12 containing L-glutamine, 15 mM HEPES + 0.1% BSA). Coelenterazine h (Invitrogen, Paisley, UK) was added to a concentration of 5 μM and the cells incubated for 4 h in the dark at room temperature whilst gently rocking. The cells were diluted 10-fold and incubated for a further 60 min before use in the assay. Synthetic peptides (GeneCust, Dudelange, Luxembourg) were reconstituted in 30% acetonitrile, dried in small aliquots by vacuum centrifugation and subsequently redissolved in BSA medium. Fifty microliter aliquots were then dispensed into quadruplicate wells of a white 96-well plate (OptiPlate, PerkinElmer). Cell suspensions were gently stirred and injected in 50 μl aliquots into each well using a Mithras LB 940 microplate reader (Berthold Technologies, Bad-Wildbad, Germany) and light emission (Ca^2+ response) recorded for 30 s. Cells were then lysed by injection of 0.3% Triton-X in BSA medium and light emission recorded for a further 10 s to measure total Ca^2+ response. BSA medium was used for blank measurements (6 replicate wells per plate) and mock transfection with empty vectors carried out for negative controls. Data was analyzed using MikroWin v5.18 (Mikrotek Laborsysteme GmbH) and SigmaPlot v.13 (Systat Software, Inc.). Receptor response was normalized against total Ca^2+ response.

[2] = biological target: T2, C. maenas CRZR (corazonin receptor) (Carcinus maenas, UniProt A0A2L0WQE5); assay: Aequorin luminescence Ca2+ mobilization in CHO-K1-Aeq cells transiently expressing CRZR; format: cell-based; conditions: for EC50: CHO-K1-Aeq cells (without Gα16) transiently expressing CRZR, luminescence response normalized to total Ca2+ response, dose response curves, means of n = 4; for bioluminescent response at CRZR compared with the homologous crab/insect ligand (Arg^7-CRZ): several independent experiments
T2 sequence (A0A2L0WQE5 1-617): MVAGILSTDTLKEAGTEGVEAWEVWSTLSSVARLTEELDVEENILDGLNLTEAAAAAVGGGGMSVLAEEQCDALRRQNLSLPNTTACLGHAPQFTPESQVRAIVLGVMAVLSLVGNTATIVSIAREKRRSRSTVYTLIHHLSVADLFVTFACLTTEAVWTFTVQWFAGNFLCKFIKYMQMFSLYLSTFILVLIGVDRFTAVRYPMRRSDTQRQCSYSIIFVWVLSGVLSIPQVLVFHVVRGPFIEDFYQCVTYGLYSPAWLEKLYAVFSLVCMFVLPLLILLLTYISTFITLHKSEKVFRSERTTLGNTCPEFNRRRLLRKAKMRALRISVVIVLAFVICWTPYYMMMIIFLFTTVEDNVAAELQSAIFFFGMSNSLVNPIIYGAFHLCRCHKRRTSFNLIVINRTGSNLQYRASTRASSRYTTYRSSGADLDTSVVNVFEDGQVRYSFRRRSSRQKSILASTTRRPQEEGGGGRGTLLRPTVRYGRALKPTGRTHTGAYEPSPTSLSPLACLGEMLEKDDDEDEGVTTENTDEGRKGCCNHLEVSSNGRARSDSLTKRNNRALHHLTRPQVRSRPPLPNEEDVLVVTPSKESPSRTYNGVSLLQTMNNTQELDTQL
Procedure: as §1, §2, §3

[3] = test system: red and black epidermal chromatophores, dactyl of the 5th walking leg; assay: Chromatophore pigment migration bioassay in vivo; set-up: species or system Carcinus maenas; conditions: for pigment migration (concentration) in red and black epidermal chromatophores: injection after 40 min dispersion with 5 pmol PDH, 0.1–100 pmol/crab for RPCH or AKH, 100 pmol/crab for CRZ or ACP, scored 5 and 20 min after injection
Procedure: Pigmentary effector activity of […], Locusta migratoria AKH-I, and ACP were measured in vivo, using small (15-20 mm carapace width) C. maenas. Crabs were firstly adapted to a white background, light intensity 300 lx for 1 h. Pigment dispersion of red and black chromatophores in the […] of the 5th walking leg were microscopically observed and indices of dispersion scored according to Hogben and Slome ([1931]). Red and black chromatophores were firstly fully dispersed by injection of 5 pmol C. maenas pigment dispersing hormone ([…]) in 10 μl saline into the hypobranchial sinus, using hand-drawn glass microcapillaries. Chromatophore dispersion indices were scored at 0, 20, 40 min. Peptides were then injected and chromatophores subsequently scored after 5 and 20 min.

[4] = test system: putative adipokinetic hormone/corazonin-related peptide receptor (ACPR); assay: Receptor assay with putative ACPR; format: cell-based, Carcinus maenas
Procedure: as §1
Cells grown in a monolayer to approximately 60% confluency in T75 flasks were transfected with pcDNA3.1 constructs using FugeneHD (Promega) according to the manufacturer's recommendations. Briefly, transfection medium was prepared by combining 800 μl Opti-MEM® (Gibco) with 10 μg vector and 30 μl Fugene HD in a 2 ml polystyrene tube and incubated for 10 min at room temperature. […]
On the day of the assay, cells were detached from the culture flask by incubating for 12 min in 5 ml 0.2% EDTA in PBS. […] Cell suspensions were gently stirred and injected in 50 μl aliquots into each well using a Mithras LB 940 microplate reader (Berthold Technologies, Bad-Wildbad, Germany) and light emission (Ca^2+ response) recorded for 30 s. Cells were then lysed by injection of 0.3% Triton-X in BSA medium and light emission recorded for a further 10 s to measure total Ca^2+ response. […] Data was analyzed using MikroWin v5.18 (Mikrotek Laborsysteme GmbH) and SigmaPlot v.13 (Systat Software, Inc.). […]

[5] = Hemolymph triglyceride levels after peptide injection; format: in vivo, Carcinus maenas; conditions: lipid mobilization bioassay
semi-isolated heart = assay: Cardioactivity on semi-isolated heart preparations; set-up: species or system Carcinus maenas; conditions: superfusion
Procedure: Cardioactivity of […], and ACP was performed on semi-isolated heart preparations of C. maenas. Crabs (ca. 65 mm carapace width) were ice-anesthetized and rapidly decerebrated before removing all limbs and the dorsal carapace to expose the heart and pericardial cavity. The heart was connected to a force transducer (MLT0210/A) via a micro fishing hook (size 28) and fine nylon (0.08 mm) monofilament. Connection to a PC with Chart 4.0 was via a Bridge Pod (ML301) and Powerlab 4/20 (AD Instruments Pty Ltd, Castle Hill, NSW, Australia). Transducer gain was set at maximum sensitivity (200 μV). Heart preparations were initially perfused with C. maenas physiological saline (Saver et al., [1999]) at room temperature (20°C). Once a stable heart output was achieved, hearts were firstly perfused with 1 ml saline, followed by increasing concentrations of peptides, applied in 1 ml. Crustacean cardioactive peptide (CCAP) (Bachem, Bubendorf, Switzerland), or proctolin (Sigma, Poole, UK) were positive controls (10^-11-10^-7 M). Test peptides ([…]) were perfused at 10^-8-10^-6 M for approximately 2 min at each concentration.

[6] = Hemolymph glucose levels after peptide injection; format: in vivo, Carcinus maenas; conditions: injection 100, 10 pmol per crab
Procedure: (§4) Adipokinetic and glucose mobilizing activity of […] and ACP were performed by measurement of triglycerides in hemolymph ([…] et al., [2014]) and glucose (Chung and Webster, [1996]). Hemolymph samples (ca. 100 μl) were taken from crabs injected with each peptide at 0 and 90 min, and subsequently assayed.

[7] = Hemolymph triglyceride levels after peptide injection; format: in vivo, Carcinus maenas
Procedure: as §4

In the case of “GnRH: evolutionarily-related peptide (mammalian) GnRH, gonadotropin releasing hormone [reference compound]”, the “binding to / activation of RPCHR” value [1] is reported as “Neither receptor was activated” and the “activation of CRZR” value ([2]; even at micromolar concentrations) is reported as “Neither receptor was activated”.

In the case of `CC(C)C[C@H](NC(=O)[C@@H]1CCC(=O)N1)C(=O)N[C@@H](CC(N)=O)C(=O)N[C@@H](Cc1ccccc1)C(=O)N[C@H](C(=O)N1CCC[C@H]1C(=O)N[C@@H](CC(N)=O)C(=O)N[C@@H](Cc1c[nH]c2ccccc12)C(=O)NCC(=O)N[C@H](C(N)=O)[C@@H](C)O)[C@@H](C)O` [Lom AKH-1, reference compound] (HELM PEPTIDE1{[Glp].L.N.F.T.P.N.W.G.T.[am]}$$$$V2.0), the EC50 [1] is reported as 0.07 nM and the “pigment migration (concentration) in red and black epidermal chromatophores” value [3] is reported as “slightly less effective compared to RPCH”.

For `CC[C@H](C)[C@H](NC(=O)[C@@H]1CCC(=O)N1)C(=O)N[C@H](C(=O)N[C@@H](Cc1ccccc1)C(=O)N[C@@H](CO)C(=O)N[C@@H](CCCNC(=N)N)C(=O)N[C@@H](CO)C(=O)N[C@@H](Cc1c[nH]c2ccccc12)C(=O)N[C@H](C(=O)N1CCC[C@H]1C(=O)N[C@@H](CCC(N)=O)C(N)=O)C(C)C)[C@@H](C)O` [ACP] (HELM PEPTIDE1{[Glp].I.T.F.S.R.S.W.V.P.Q.[am]}$$$$V2.0), the “binding to putative ACPR” value [4] was “did not bind”, the EC50 [1] was greater than 20000 nM and the “binding to / activation of RPCHR” value [1] was “vanishingly small dose-dependent binding”. The “effect on hemolymph diacylglycerol levels” value [5] was “completely without effect”, the “pigment migration (concentration) in red and black epidermal chromatophores” value [3] was “completely ineffective” and the “cardioacceleratory effect on semi-isolated hearts” value (semi-isolated heart; concentrations up to 10^−6 M, 20°C) was “completely without cardioacceleratory effect”. The “activity on circulating glucose” value [6] was “neither CRZ nor ACP exhibited any biological activity”, the “hemolymph triglyceride levels, 0 min” value ([7]; injection 100 pmol per crab, 0 min, mean ± 1 SEM, n = 6, SEM) was 1.47 ± 0.44 µg/µL and the “hemolymph triglyceride levels, 90 min” value ([7]; injection 100 pmol per crab, 90 min, mean ± 1 SEM, n = 6, no significant change over 90 min, SEM) was 1.28 ± 0.34 µg/µL. For the same compound, the “activity on circulating triglycerides” value ([7]; injection 100, 10 pmol per crab) was “neither CRZ nor ACP exhibited any biological activity”.

For “NSELINSILGLPKVMNDA-NH2 [PDH, C. maenas pigment dispersing hormone, reference compound]”, the “pigment dispersion of chromatophores” value ([3]; injection of 5 pmol, over 40 min) was “expansion of both red and black chromatophores”.

With `C[C@@H](O)[C@H](NC(=O)[C@H](Cc1c[nH]c2ccccc12)NC(=O)CNC(=O)[C@H](Cc1c[nH]cn1)NC(=O)[C@H](CO)NC(=O)[C@H](Cc1ccc(O)cc1)NC(=O)[C@@H](NC(=O)[C@H](Cc1ccccc1)NC(=O)[C@@H](NC(=O)[C@@H]1CCC(=O)N1)[C@@H](C)O)[C@@H](C)O)C(=O)N[C@@H](CC(N)=O)C(N)=O` [Thr^4, His^7-CRZ] (HELM PEPTIDE1{[Glp].T.F.T.Y.S.H.G.W.T.N.[am]}$$$$V2.0) the EC50 [2] was 0.14 nM and the “bioluminescent response at CRZR compared with the homologous crab/insect ligand (Arg^7-CRZ)” value [2] was “somewhat higher bioluminescent response at lower doses”.

With proctolin [reference compound] the “kind of response on semi-isolated hearts” value (semi-isolated heart; positive control) was “very pronounced inotropic response” and the “threshold response on semi-isolated hearts” value (semi-isolated heart; positive controls, CCAP: most sensitive preparations) was “about 10^−9 M”.

With `C[C@@H](O)[C@H](NC(=O)[C@H](Cc1c[nH]c2ccccc12)NC(=O)CNC(=O)[C@H](Cc1c[nH]cn1)NC(=O)[C@H](CO)NC(=O)[C@H](Cc1ccc(O)cc1)NC(=O)[C@H](CCC(N)=O)NC(=O)[C@H](Cc1ccccc1)NC(=O)[C@@H](NC(=O)[C@@H]1CCC(=O)N1)[C@@H](C)O)C(=O)N[C@@H](CC(N)=O)C(N)=O` [His^7-CRZ] (HELM PEPTIDE1{[Glp].T.F.Q.Y.S.H.G.W.T.N.[am]}$$$$V2.0) the EC50 [2] was 0.3 nM and the “bioluminescent response at CRZR compared with the homologous crab/insect ligand (Arg^7-CRZ)” value [2] was “somewhat higher bioluminescent response at lower doses”.
